Columns and labels:
wild-type EGFR = wild-type EGFR (Homo sapiens (Human), UniProt P00533); experiment: In vitro EGFR kinase activity assay (Z'-Lyte); type: biochemical; settings: EGFR WT; read-out: Inhibitory activity on EGFR kinase (IC50, nM) WT;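 further: Ten-point dose series from 5.1×10^−11 to 1.0×10^−6 mol/L, kinase reaction 1.5 h at room temperature, then 1 h development cleaving unphosphorylated peptide, phosphopeptide as 100% phosphorylation control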
Method: (§8) Inhibitory effects in vitro of the compounds provided in the present invention on EGFR kinase activity was tested as follows:
(§9) 10 concentration gradients, from 5.1×10^−11 mol/L to 1.0×10^−6 mol/L, were set for all of the compounds to be tested.
(§10) 10 μL of kinase reaction system comprised 2.5 μL of compound solution, 5 μL of Kinase/peptide mixture, and 2.5 μL of ATP solution. 5 μL of phosphopeptide solution was used in place of kinase/peptide mixture as 100% phosphorylation control. […] After thoroughly mixing the solution within the plate, the plate was incubated at room temperature for 1.5 hours. 5 μL of DevelopmentSolution was added into each well, and then the plate was incubated at room temperature for another 1 hour, and non-phosphorylated peptide was cleaved within this period. Finally, the reaction was quenched by adding 5 μL of Stop Reagent. The Plate was measured with EnVision Multilabel Reader (Perkin Elmer). Experimental data were calculated by using GraphPad Prism version 4.0. Each experiment was repeated more than three times.

EGFR-L858R = EGFR-L858R (Homo sapiens (Human), UniProt P00533, L858R); experiment: In vitro EGFR kinase activity assay (Z'-Lyte); type: biochemical; settings: read-out: Inhibitory activity on EGFR kinase (IC50, nM) L858R;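 further: Cell-free kinase reaction with peptide substrate and ATP, 1.5 h at room temperature, then development step cleaving non-phosphorylated peptide, 10-point dilution series 0.051–1000 nM, phosphopeptide as 100% phosphorylation control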
Method: as §8, §9, §10

EGFR-L858R/T790M = EGFR-L858R/T790M (Homo sapiens (Human), UniProt P00533, L858R/T790M); experiment: In vitro EGFR kinase activity assay (Z'-Lyte); type: biochemical; settings: read-out: Inhibitory activity on EGFR kinase (IC50, nM) T790M/L858R;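 further: Cell-free kinase reaction with peptide substrate and ATP, 1.5 h at room temperature, development cleaving unphosphorylated peptide, 10-point dilution 0.051–1000 nM, phosphopeptide as 100% phosphorylation control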
[1] = test system: H1975 (non-small cell lung cancer cells, EGFR L858R/T790M); experiment: Cell proliferation and growth inhibition analysis; type: cell-based; settings: Homo sapiens, NCI-H1975, 72 hours, read-out: Inhibitory activity on cell proliferation (IC50, μM) H1975
Method: (§1) Cell proliferation was evaluated by MTS assay. Cells were exposed to the process conditions for 72 hours, and the number of cells for each cell line used in the experiment was adjusted according to the absorbance value (absorbance value at 490 nm was 1.3-2.2). 6 concentration gradients (0.1 nM-10 μM) were set for the compounds to be tested, with six parallel controls for each concentration.
(§2) H1975, HCC827, A549, BT474, MCF-7, SK-BR-3 cells were cultured in the corresponding medium. Upon recovery, the cells were passaged at least two times and then used in experiments. Cells in Log phase were trypsinized and resuspended in the medium. H1975 (1000 cells per well), BT474 (1500 cells per well), MCF-7 (1500 cells per well), HCC827 (2000 cells per well), SK-BR-3 (2000 cells per well), A549 (2000 cells per well) were seeded into 96-well plates, the volume was 100 μL, and 6 rows and 7 columns were set. The plate was placed in an incubator at 37° C. of 5% carbon dioxide overnight. Compounds were dissolved in DMSO to obtain the concentration of […], and then gradually diluted to obtain the concentration of compound as […], 0.1 μM, 0.01 μM, 0.001 μM, 0.0001 μM. 2 μL of compound solution was added into 998 μL of medium, and the resulting mixture was thoroughly mixed. 100 μL of mixture was added into 96-well plate. […] After the cells were cultured for 68 hours, 20 μL of MTT (5 mg/mL) was added. After 4 hours, the supernatant was discarded and 150 μL of DMSO was added. The resulting system was shaken for 10 minutes, and the plate was read with Synergy HT (Bio TeK) (OD490). The data was calculated by GraphPad Prism version 4.0, and IC50 was obtained by non-linear regression model using dose-response curve.

[2] = test system: HCC827 (non-small cell lung cancer cells, EGFR del E746-A750); experiment: Cell proliferation and growth inhibition analysis; type: cell-based; settings: Homo sapiens, 72 hours, read-out: Inhibitory activity on cell proliferation (IC50, μM) HCC827
Method: as §1, §2

BLK = BLK (Homo sapiens (Human), UniProt P51451); experiment: BLK kinase activity assay (Caliper); type: biochemical; settings: read-out: Inhibitory activity on kinase (IC50, nM) BLK
Method: (§3) Preparation of 1× kinase matrix buffer and stop buffer.
(§4) Preparation of compound solution. The compound was dissolved in 100% DMSO to a concentration, which was 50 times of the final highest inhibiting-concentration. 100 μL of the compound solution as said above was transferred into wells of 96-well plate. The above compound solution was sequentially diluted to the final desired concentration. In two blank wells of same 96-well plate, 100 μL of 100% DMSO was added as no-compound and no-kinase control, and this plate was used as the original plate.
(§5) Preparation of intermediate plate. 10 μL of compound solution was transferred from the original plate to another 96-well plate as the intermediate plate; 90 μL of 1× kinase buffer was added into each well of the intermediate plate, and the intermediate plate was shaken for 10 min.
(§6) Preparation of assay plate. 5 μL of solution from each well of intermediate plate was added into a 384-well plate, and repeated controls were set.
(§7) Kinase reaction. 2.5× kinase solution and 2.5× peptide solution were prepared. 2.5× kinase solution was transferred into assay plate. Assay plate comprised 5 μL of the compound solution in 10% DMSO. 10 μL of 2.5× kinase solution was added in each well of 384-well assay plate. […] 2.5× peptide solution was added into each well. After incubated at 28° C. for an appropriate time, 25 μL of stop buffer was added to quench the reaction. Experimental data were collected in Caliper. Curve was fitted.

FLT3 = FLT3 (Homo sapiens (Human), UniProt P36888); experiment: FLT3 kinase activity assay (Caliper); type: biochemical; settings: read-out: Inhibitory activity on kinase (IC50, nM) FLT3
Method: as §3, §4, §5, §6, §7

FLT3, sequence (P36888 27-993): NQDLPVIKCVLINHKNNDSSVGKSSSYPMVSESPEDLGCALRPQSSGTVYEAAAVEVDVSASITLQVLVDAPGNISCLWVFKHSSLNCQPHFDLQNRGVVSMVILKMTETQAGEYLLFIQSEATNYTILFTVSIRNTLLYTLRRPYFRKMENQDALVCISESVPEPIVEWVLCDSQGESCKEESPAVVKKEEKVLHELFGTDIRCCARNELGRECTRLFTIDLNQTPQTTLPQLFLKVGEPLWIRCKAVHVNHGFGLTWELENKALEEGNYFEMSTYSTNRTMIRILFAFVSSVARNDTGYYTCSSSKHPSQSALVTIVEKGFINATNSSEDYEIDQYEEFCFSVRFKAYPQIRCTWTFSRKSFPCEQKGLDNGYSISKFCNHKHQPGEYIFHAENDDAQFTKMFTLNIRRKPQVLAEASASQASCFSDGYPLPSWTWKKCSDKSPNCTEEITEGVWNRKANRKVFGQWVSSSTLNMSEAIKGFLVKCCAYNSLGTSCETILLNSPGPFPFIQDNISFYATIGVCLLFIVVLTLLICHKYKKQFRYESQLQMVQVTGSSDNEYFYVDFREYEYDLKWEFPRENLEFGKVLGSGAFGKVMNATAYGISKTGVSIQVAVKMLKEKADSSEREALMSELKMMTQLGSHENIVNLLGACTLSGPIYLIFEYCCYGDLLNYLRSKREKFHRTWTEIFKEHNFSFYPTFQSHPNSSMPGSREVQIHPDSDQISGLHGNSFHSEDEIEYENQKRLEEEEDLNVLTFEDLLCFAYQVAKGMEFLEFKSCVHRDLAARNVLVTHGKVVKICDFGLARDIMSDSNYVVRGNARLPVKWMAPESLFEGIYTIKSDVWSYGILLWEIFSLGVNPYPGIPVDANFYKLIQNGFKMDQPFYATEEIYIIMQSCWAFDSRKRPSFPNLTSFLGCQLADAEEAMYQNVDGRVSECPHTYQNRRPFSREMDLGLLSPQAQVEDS
BLK, sequence (P51451 whole entry): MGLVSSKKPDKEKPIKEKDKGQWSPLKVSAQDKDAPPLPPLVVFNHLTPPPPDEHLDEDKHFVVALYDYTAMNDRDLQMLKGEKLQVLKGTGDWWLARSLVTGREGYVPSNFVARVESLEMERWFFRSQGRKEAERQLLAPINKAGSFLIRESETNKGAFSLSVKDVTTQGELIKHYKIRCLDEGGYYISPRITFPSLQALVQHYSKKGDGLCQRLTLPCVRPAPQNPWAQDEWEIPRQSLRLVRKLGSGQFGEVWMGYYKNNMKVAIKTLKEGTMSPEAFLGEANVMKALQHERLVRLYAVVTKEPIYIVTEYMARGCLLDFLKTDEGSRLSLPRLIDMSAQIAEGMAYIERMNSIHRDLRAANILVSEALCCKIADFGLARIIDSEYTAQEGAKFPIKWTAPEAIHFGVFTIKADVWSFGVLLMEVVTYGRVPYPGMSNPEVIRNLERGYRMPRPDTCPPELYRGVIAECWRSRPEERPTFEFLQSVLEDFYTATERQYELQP
EGFR-L858R/T790M, sequence (P00533 25-1210 T790M/L858R): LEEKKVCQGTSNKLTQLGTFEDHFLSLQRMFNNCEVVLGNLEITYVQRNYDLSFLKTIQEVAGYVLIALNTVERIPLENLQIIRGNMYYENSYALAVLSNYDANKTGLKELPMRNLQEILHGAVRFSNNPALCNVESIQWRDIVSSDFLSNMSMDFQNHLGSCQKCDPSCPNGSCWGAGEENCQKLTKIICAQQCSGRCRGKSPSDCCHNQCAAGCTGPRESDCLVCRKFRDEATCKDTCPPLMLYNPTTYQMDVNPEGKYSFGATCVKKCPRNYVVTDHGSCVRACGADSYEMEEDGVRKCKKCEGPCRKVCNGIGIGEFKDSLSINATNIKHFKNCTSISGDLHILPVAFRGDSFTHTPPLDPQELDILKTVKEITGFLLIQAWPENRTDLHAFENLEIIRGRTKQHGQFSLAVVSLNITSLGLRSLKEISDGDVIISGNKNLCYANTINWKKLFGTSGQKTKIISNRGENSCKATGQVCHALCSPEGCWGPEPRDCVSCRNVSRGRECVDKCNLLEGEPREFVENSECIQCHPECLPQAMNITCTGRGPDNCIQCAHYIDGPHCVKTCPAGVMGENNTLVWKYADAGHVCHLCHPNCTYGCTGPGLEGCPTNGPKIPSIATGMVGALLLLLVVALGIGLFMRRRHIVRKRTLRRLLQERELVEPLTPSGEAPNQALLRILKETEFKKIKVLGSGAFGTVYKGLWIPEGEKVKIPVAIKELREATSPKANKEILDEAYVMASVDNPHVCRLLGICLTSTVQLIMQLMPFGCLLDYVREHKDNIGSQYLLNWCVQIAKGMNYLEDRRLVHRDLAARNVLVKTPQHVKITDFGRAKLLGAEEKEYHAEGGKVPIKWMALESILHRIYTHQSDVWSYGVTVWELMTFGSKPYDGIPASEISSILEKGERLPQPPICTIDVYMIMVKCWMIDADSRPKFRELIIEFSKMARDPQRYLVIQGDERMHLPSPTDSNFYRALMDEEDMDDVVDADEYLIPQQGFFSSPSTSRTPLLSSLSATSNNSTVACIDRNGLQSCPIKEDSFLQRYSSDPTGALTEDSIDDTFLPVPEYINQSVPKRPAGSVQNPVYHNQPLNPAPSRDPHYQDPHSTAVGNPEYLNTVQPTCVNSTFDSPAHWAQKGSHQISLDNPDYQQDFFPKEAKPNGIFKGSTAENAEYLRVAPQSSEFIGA
wild-type EGFR, sequence (P00533 25-1210): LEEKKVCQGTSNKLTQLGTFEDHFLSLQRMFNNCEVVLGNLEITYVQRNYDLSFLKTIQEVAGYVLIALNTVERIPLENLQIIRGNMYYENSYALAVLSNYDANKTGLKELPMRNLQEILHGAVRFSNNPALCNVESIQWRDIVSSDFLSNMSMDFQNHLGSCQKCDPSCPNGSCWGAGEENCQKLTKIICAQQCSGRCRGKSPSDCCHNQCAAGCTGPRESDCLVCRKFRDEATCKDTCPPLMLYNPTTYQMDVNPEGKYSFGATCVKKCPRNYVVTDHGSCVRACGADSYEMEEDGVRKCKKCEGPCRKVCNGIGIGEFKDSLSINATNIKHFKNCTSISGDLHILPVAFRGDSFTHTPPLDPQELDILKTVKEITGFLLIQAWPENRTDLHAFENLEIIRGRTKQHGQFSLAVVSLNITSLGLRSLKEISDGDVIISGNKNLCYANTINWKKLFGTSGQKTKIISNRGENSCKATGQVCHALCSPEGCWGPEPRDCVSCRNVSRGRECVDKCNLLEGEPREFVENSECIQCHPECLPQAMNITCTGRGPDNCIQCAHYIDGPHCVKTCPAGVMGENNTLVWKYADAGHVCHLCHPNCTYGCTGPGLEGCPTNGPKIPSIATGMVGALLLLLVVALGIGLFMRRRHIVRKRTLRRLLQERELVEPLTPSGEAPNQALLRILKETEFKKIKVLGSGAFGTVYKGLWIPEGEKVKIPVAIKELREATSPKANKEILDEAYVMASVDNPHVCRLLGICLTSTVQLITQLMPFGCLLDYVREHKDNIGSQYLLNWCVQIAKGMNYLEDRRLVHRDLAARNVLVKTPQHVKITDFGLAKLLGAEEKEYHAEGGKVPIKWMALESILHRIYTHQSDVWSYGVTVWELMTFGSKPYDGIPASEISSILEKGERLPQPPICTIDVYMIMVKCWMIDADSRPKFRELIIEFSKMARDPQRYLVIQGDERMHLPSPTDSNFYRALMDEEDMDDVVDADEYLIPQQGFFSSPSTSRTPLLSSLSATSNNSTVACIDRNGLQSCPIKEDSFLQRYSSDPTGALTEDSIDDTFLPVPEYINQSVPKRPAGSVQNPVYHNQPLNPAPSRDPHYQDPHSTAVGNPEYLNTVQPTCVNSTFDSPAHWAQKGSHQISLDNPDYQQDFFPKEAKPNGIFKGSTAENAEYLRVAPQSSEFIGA
EGFR-L858R, sequence (P00533 25-1210 L858R): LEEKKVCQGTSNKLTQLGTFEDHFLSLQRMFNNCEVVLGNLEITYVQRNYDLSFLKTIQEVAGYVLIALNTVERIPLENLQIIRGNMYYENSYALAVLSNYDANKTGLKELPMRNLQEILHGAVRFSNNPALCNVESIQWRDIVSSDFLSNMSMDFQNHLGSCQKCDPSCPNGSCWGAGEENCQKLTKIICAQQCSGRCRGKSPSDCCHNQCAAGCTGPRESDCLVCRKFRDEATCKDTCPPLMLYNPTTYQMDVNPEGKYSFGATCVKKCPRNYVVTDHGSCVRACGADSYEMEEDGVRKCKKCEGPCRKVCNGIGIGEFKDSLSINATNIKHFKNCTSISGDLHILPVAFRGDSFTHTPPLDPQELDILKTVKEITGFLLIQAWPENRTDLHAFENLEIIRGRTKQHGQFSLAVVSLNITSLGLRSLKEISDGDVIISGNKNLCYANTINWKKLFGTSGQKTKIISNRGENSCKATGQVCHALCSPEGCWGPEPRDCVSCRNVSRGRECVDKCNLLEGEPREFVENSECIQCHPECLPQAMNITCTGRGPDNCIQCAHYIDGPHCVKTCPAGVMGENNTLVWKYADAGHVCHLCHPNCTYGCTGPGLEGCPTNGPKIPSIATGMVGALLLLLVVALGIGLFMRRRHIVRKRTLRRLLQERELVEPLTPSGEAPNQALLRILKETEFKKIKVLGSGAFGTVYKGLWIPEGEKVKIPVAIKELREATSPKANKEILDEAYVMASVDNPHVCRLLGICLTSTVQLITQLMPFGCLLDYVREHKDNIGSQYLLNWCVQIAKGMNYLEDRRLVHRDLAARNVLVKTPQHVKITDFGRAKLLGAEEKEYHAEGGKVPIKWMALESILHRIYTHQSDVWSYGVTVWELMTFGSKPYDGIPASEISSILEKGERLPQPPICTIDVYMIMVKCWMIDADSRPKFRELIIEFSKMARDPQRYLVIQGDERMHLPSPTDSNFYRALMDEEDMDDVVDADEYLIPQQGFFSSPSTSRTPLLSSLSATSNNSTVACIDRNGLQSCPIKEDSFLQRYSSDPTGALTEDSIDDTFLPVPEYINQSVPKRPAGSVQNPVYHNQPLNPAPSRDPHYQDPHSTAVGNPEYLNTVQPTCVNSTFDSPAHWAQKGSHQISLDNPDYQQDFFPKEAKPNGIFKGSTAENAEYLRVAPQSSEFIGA

Compound	IC50 (wild-type EGFR) [nM]	IC50 (EGFR-L858R) [nM]	IC50 (EGFR-L858R/T790M) [nM]	IC50 [1] [µM]	IC50 [2] [µM]	IC50 (BLK) [nM]	IC50 (FLT3) [nM]
C=CC(=O)Nc1ccc(-n2c(=O)cnc3cnc(Nc4ccc(N5CCN(C)CC5)cc4OC)nc32)cc1 [Compound 031]	429	376	229	2.88	0.466	812	180
C=CC(=O)Nc1ccc(-n2c(=O)cnc3cnc(Nc4ccc(N5CCN(C)CC5)cc4)nc32)cc1 [Compound 019, N-(4-(2-(4-(4-methyl-1-piperazinyl)-phenylamino)-7-oxo-8(7H)-pteridin-yl)phenyl) acrylamide]	1260	6380	738	8.87	0.676	796	51
C=CC(=O)Nc1cccc(Oc2nc(Nc3ccc(N4CCN(C)CC4)cc3OC)ncc2Cl)c1 [WZ4002, reference compound]				0.039	0.014		
COc1ccc(-n2c(=O)cnc3cnc(Nc4ccc(N)cc4)nc32)cc1 [Compound 030, 2-(4-aminophenylamino)-8-(4-methoxyphenyl)-7(8H)-pteridin-one]	3420	23800	6750	15.3	4.65	> 10000	43
COc1ccc(-n2c(=O)cnc3cnc(Nc4cccc(N)c4)nc32)cc1 [Compound 028, 2-(3-aminophenylamino)-8-(4-methoxyphenyl)-7(8H)-pteridin-one]	10600	18900	3530	82.8	15.9	7950	34
C=CC(=O)Nc1ccc(-n2c(=O)cnc3cnc(Nc4ccc(Cl)cc4)nc32)cc1 [Compound 016, N-(4-(2-(4-chlorophenylamino)-7-oxo-8(7H)-pteridin-yl)phenyl) acrylamide]	7580	116	1490	20.8	68.7	> 10000	358
C=CC(=O)Nc1ccc(Nc2ncc3ncc(=O)n(-c4ccc(OC)cc4)c3n2)cc1 [Compound 029, N-(4-(8-(4-methoxyphenyl)-7-oxo-7,8-dihydro-pteridin-2-amino)phenyl) acrylamide]	> 10000	1320	> 10000	0.953	0.543	> 10000	100
C=CC(=O)Oc1ccc(-n2c(=O)cnc3cnc(Nc4ccc(OC)cc4)nc32)cc1 [Compound 011, 4-(2 (4-methoxyphenylamino)-7-oxo-8(7H)-pteridin-yl)phenyl acrylate]	67	84.8	70.3	5.6	2.29	89	48

Continued, values first:

IC50 (wild-type EGFR) [nM]	IC50 (EGFR-L858R) [nM]	IC50 (EGFR-L858R/T790M) [nM]	IC50 [1] [µM]	IC50 [2] [µM]	IC50 (BLK) [nM]	IC50 (FLT3) [nM]	Compound
23.1	16.3	5.57	0.477	0.031	83	1760	C=CC(=O)Nc1cccc(-n2c(=O)cnc3cnc(Nc4ccc(N(CC)CC)cc4)nc32)c1 [Compound 023, N-(3-(2-(4-(diethylamino)phenylamino)-7-oxo-8(7H)-pteridin-yl)phenyl) acrylamide]
12.7	9.64	4.39	7.3	0.604	76	1790	C=CC(=O)Nc1cccc(-n2c(=O)cnc3cnc(Nc4ccc(C(N)=O)cc4)nc32)c1 [Compound 025, 4-(8-(3-acrylamidephenyl)-7-oxo-7,8-dihydropteridinyl-2-amino)benzamide]
2000	1710	1200	3.05	0.408	5660	119	C=CC(=O)Nc1cccc(Nc2ncc3ncc(=O)n(-c4ccc(OC)cc4)c3n2)c1 [Compound 027, N-(3-(8-(4-methoxyphenyl)-7-oxo-7,8-dihydro-pteridin-2-amino)phenyl) acrylamide]
					96	568	C=CC(=O)Nc1cccc(-n2c(=O)c(C)nc3cnc(Nc4ccc(OC)cc4)nc32)c1 [Compound 026, N-(3-(2-(4-methoxyphenylamino)-6-methyl-7-oxo-8(7H)-pteridin-yl)phenyl) acrylamide]
23.3	12.6	5.33	0.531	0.073	98	1080	C=CC(=O)Nc1cccc(-n2c(=O)cnc3cnc(Nc4ccc(N5CCCC5)cc4)nc32)c1 [Compound 022, N-(3-(7-oxo-2-(4-(1-pyrrolidinyl)phenylamino)-8(7H)-pteridin-yl)phenyl) acrylamide]
5980	5340	1920	18.9	4.42	6320	160	CN(C)C/C=C/C(=O)Nc1ccc(-n2c(=O)cnc3cnc(Nc4ccccc4)nc32)cc1 [Compound 012, 4-(dimethylamino)-N-(4-(7-oxo-2-(phenylamino)-8(7H)-pteridin-yl)phenyl)-2-buteneamide]
15.8	13.4	5.12	6.08	0.229	148	3550	C=CC(=O)Nc1cccc(-n2c(=O)cnc3cnc(Nc4ccc(NC(C)=O)cc4)nc32)c1 [Compound 024, N-(3-(2-(4-(acetylamino)-phenylamino)-7-oxo-8(7H)-pteridin-yl)phenyl) acrylamide]
19.7	11.7	5.49	0.238	0.02	83	878	C=CC(=O)Nc1cccc(-n2c(=O)cnc3cnc(Nc4ccc(N5CCCCC5)cc4)nc32)c1 [Compound 021, N-(3-(7-oxo-2-(4-(1-piperidinyl)phenylamino)-8(7H)-pteridinyl)phenyl) acrylamide]
7.94	5.83	3.02	0.216	0.017	41	798	C=CC(=O)Nc1cccc(-n2c(=O)cnc3cnc(Nc4ccc(N5CCOCC5)cc4)nc32)c1 [Compound 018, N-(3-(2-(4-morpholinophenylamino)-7-oxo-8(7H)-pteridin-yl)phenyl) acrylamide]
					171	3780	CN(C)C/C=C/C(=O)Nc1cccc(-n2c(=O)cnc3cnc(Nc4ccccc4)nc32)c1 [Compound 013, 4-(dimethylamino)-N-(3-(7-oxo-2-(phenylamino)-8(7H)-pteridin-yl)phenyl)-2-buteneamide]
			0.437			1860	C=CC(=O)Nc1cccc(-n2c(=O)cnc3cnc(Nc4ccccc4)nc32)c1 [Compound 015, N-(3-(7-oxo-2-(phenylamino)-8(7H)-pteridin-yl)phenyl)acrylamide]

Reference: patent US9670213B2, “Pteridine ketone derivative and applications thereof as EGFR, BLK, and FLT3 inhibitor” (EAST CHINA UNIVERSITY OF SCIENCE AND TECHNOLOGY, priority 2012, dated 2017)
